Experimental data published in patent US8372967B2, “Compounds and methods for modulating expression of GCCR” (Isis Pharmaceuticals, Inc., priority 2006, dated 2013).
Strand notation (5' to 3'): a small letter for the sugar, then the base; units joined by * are phosphorothioate-linked, units joined directly phosphodiester-linked; [ ] holds rarer units or linkages, { } end groups; capitals alone tell only the bases. e = 2'-O-(2-methoxyethyl) (MOE); [5mC] = 5-methylcytosine; d = 2'-deoxy (DNA)

Assay: Organ weights: liver, WAT, spleen, kidney, GCGR study (Table 33)
Type: in vivo, mouse
Settings: 48 h
Experimental: Eight-week old male C57/BL6 mice (Jackson Laboratory, Bar Harbor, Me.) were administered a single dose of GCGR oligonucleotide by intraperitoneal injection at a concentration of […]. Each dose group consisted of four animals. Shown in Table 31 are the sequences, motifs and conjugates of the GCGR antisense compounds used in this study. Bolded residues indicate 2′-O-methoxyethyl (2′-MOE) moieties. All compounds comprise phosphorothioate internucleoside linkages throughout and each cytosine is replaced with 5-methylcytosine. ISIS 386626, ISIS 386627 and ISIS 386628 further comprise a C16 conjugate group attached to the 2′-O position of the sugar via a diamide linkage (2′-OCH2C(═O)N(H)(CH2)4N(H)C(═O)—(CH2)15CH3). GCGR antisense compounds target published GCGR sequences, including Genbank® Accession No. BC031885.1 (SEQ ID NO: 7).
Mice were sacrificed 48 hours following injection to determine serum transaminase levels (Table 32); liver, white adipose tissue (WAT), spleen and kidney weight (Table 33); cholesterol, triglyceride and glucose levels (Table 34); GCGR mRNA levels (Tables 35-41); and full-length and total oligonucleotide concentration in liver and kidney (Table 42). Endpoints were assessed using methods described herein and well known to those of ordinary skill in the art. Data is included from a pre-treatment bleed (Pre-Bleed) and post-treatment bleed (Post-Bleed).

148364 (antisense eT*eG*e[5mC]*eA*e[5mC]*dT*dT*dT*dG*dT*dG*dG*dT*dA*d[5mC]*e[5mC]*eA*eA*eG*eG) [compound 148364]
Organ Weights: Kidney (6.25 mg/kg single i.p.): 104 % saline control | Organ Weights: Liver (6.25 mg/kg single i.p.): 101 % saline control | Organ Weights: Spleen (6.25 mg/kg single i.p.): 113 % saline control | Organ Weights: WAT (6.25 mg/kg single i.p.): 89 % saline control | Organ Weights: Kidney (12.5 mg/kg single i.p.): 108 % saline control | Organ Weights: Liver (12.5 mg/kg single i.p.): 100 % saline control | Organ Weights: Spleen (12.5 mg/kg single i.p.): 96 % saline control | Organ Weights: WAT (12.5 mg/kg single i.p.): 84 % saline control | Organ Weights: Kidney (25 mg/kg single i.p.): 112 % saline control | Organ Weights: Liver (25 mg/kg single i.p.): 103 % saline control | Organ Weights: Spleen (25 mg/kg single i.p.): 115 % saline control | Organ Weights: WAT (25 mg/kg single i.p.): 75 % saline control | Organ Weights: Kidney (50 mg/kg single i.p.): 108 % saline control | Organ Weights: Liver (50 mg/kg single i.p.): 103 % saline control | Organ Weights: Spleen (50 mg/kg single i.p.): 123 % saline control | Organ Weights: WAT (50 mg/kg single i.p.): 80 % saline control
